Measurements taken from the supplement of paper PMC10307832.

compound: COc1cccc2cc(-c3nc([C@H]4CC[C@H](C(=O)O)CC4)n4ncnc(N)c34)[nH]c12 [OSI-027] + C[C@@H](Oc1cc(-c2cnn(C3CCNCC3)c2)cnc1N)c1c(Cl)ccc(F)c1Cl [Crizotinib] (partner 1 µM); experiment: relative viability (nuclei count vs DMSO), 5 days (fraction); higher = more cells survive; conditions: first compound 0.01 µM
Outline: (§1)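 Lung cancer cell lines in 1536-well plates were dosed by pin tool the day after seeding, either with one drug alone or with a fixed anchor-drug dose plus five library-drug doses (not always all listed) in √10 steps. After 5 days, cells were fixed and their nuclei stained in one step (final 0.05% Triton X-100, 1% formaldehyde, 1 ug/ml Hoechst), then counted on 4× images. Relative viability is the nuclei count in treated wells divided by that in vehicle wells. Values are medians of duplicate plates.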

Cell Line | relative viability
EKVX | 0.92
NCI-H2087 | 0.991
NCI-H1734 | 0.618
LCLC-103H | 1.07
LU99A | 0.522
NCI-H460 | 0.888
NCI-H2170 | 1.31
HCC-15 | 0.933
NCI-H1944 | 1.18
EMC-BAC-2 | 0.752
LC-2-ad | 0.49
NCI-H2085 | 0.807
NCI-H727 | 0.626
NCI-H647 | 1.12
HARA | 1.07
NCI-H3122 | 0.261
NCI-H358 | 0.566
CAL-12T | 0.567

same assay, conditions: first compound 0.03162 µM

Cell Line | relative viability
EKVX | 0.816
NCI-H2087 | 0.971
NCI-H1734 | 0.509
LCLC-103H | 1.03
LU99A | 0.522
NCI-H460 | 0.714
NCI-H2170 | 1.07
HCC-15 | 0.712
NCI-H1944 | 1.18
EMC-BAC-2 | 0.786
LC-2-ad | 0.483
NCI-H2085 | 0.852
NCI-H727 | 0.862
NCI-H647 | 1.2
HARA | 0.85
NCI-H3122 | 0.26
NCI-H358 | 0.509
CAL-12T | 0.568

same assay, conditions: first compound 0.1 µM

Cell Line | relative viability
EKVX | 1.03
NCI-H2087 | 0.753
NCI-H1734 | 0.731
LCLC-103H | 1.18
LU99A | 0.46
NCI-H460 | 1.06
NCI-H2170 | 0.986
HCC-15 | 0.789
NCI-H1944 | 1.1
EMC-BAC-2 | 0.737
LC-2-ad | 0.458
NCI-H2085 | 0.825
NCI-H727 | 0.798
NCI-H647 | 1.07
HARA | 0.999
NCI-H3122 | 0.266
NCI-H358 | 0.552
CAL-12T | 0.62

same assay, conditions: first compound 0.3162 µM

Cell Line | relative viability
EKVX | 0.822
NCI-H2087 | 0.866
NCI-H1734 | 0.599
LCLC-103H | 0.948
LU99A | 0.313
NCI-H460 | 0.759
NCI-H2170 | 1.1
HCC-15 | 0.732
NCI-H1944 | 0.918
EMC-BAC-2 | 0.683
LC-2-ad | 0.474
NCI-H2085 | 0.812
NCI-H727 | 0.655
NCI-H647 | 0.701
HARA | 1.09
NCI-H3122 | 0.215
NCI-H358 | 0.704
CAL-12T | 0.718

same assay, conditions: first compound 1 µM

Cell Line | relative viability
EKVX | 0.513
NCI-H2087 | 0.53
NCI-H1734 | 0.394
LCLC-103H | 1.01
LU99A | 0.208
NCI-H460 | 0.184
NCI-H2170 | 0.552
HCC-15 | 0.482
NCI-H1944 | 0.596
EMC-BAC-2 | 0.416
LC-2-ad | 0.384
NCI-H2085 | 0.586
NCI-H727 | 0.517
NCI-H647 | 0.456
HARA | 0.407
NCI-H3122 | 0.163
NCI-H358 | 0.348
CAL-12T | 0.487

compound: CCCS(=O)(=O)Nc1ccc(F)c(C(=O)c2c[nH]c3ncc(-c4ccc(Cl)cc4)cc23)c1F [Vemurafenib] + Cc1cc(Nc2cc(N3CCN(C)CC3)nc(Sc3ccc(NC(=O)C4CC4)cc3)n2)n[nH]1 [Tozasertib] (partner 0.1 µM); experiment: as above; conditions: first compound 0.03162 µM
Outline: as §1

Cell Line | relative viability
EKVX | 0.351
NCI-H2087 | 0.249
NCI-H1734 | 0.269
LCLC-103H | 0.476
LU99A | 0.245
NCI-H460 | 0.389
NCI-H2170 | 0.637
HCC-15 | 0.375
NCI-H1944 | 0.268
EMC-BAC-2 | 0.303
LC-2-ad | 0.396
NCI-H2085 | 0.754
NCI-H727 | 0.506
NCI-H647 | 0.262
HARA | 0.0946
NCI-H3122 | 0.398
NCI-H358 | 0.122
CAL-12T | 0.31

same assay, conditions: first compound 0.1 µM

Cell Line | relative viability
NCI-H2087 | 0.236
NCI-H1734 | 0.246
LCLC-103H | 0.395
LU99A | 0.256
NCI-H460 | 0.28
NCI-H2170 | 0.617
HCC-15 | 0.4
NCI-H1944 | 0.201
EMC-BAC-2 | 0.28
LC-2-ad | 0.466
NCI-H2085 | 0.727
NCI-H727 | 0.584
NCI-H647 | 0.263
HARA | 0.0784
NCI-H3122 | 0.335
NCI-H358 | 0.107
CAL-12T | 0.289

same assay, conditions: first compound 0.3162 µM

Cell Line | relative viability
EKVX | 0.383
NCI-H1734 | 0.281
LCLC-103H | 0.493
LU99A | 0.316
NCI-H2170 | 0.751
HCC-15 | 0.389
NCI-H1944 | 0.274
EMC-BAC-2 | 0.212
NCI-H2085 | 0.802
NCI-H727 | 0.808
NCI-H647 | 0.271
HARA | 0.138
NCI-H3122 | 0.371
NCI-H358 | 0.107
CAL-12T | 0.346

same assay, conditions: first compound 1 µM

Cell Line | relative viability
EKVX | 0.326
NCI-H2087 | 0.132
NCI-H1734 | 0.269
LCLC-103H | 0.487
LU99A | 0.264
NCI-H460 | 0.156
NCI-H2170 | 0.679
HCC-15 | 0.253
NCI-H1944 | 0.256
EMC-BAC-2 | 0.237
LC-2-ad | 0.44
NCI-H2085 | 0.508
NCI-H727 | 0.775
NCI-H647 | 0.248
HARA | 0.12
NCI-H3122 | 0.365
NCI-H358 | 0.111
CAL-12T | 0.26

compound: CCCS(=O)(=O)Nc1ccc(F)c(C(=O)c2c[nH]c3ncc(-c4ccc(Cl)cc4)cc23)c1F [Vemurafenib] + COc1cccc2cc(-c3nc([C@H]4CC[C@H](C(=O)O)CC4)n4ncnc(N)c34)[nH]c12 [OSI-027] (partner 0.5 µM); experiment: as above; conditions: first compound 0.03162 µM
Outline: as §1

Cell Line | relative viability
EKVX | 0.634
NCI-H2087 | 0.481
NCI-H1734 | 0.583
LCLC-103H | 0.41
LU99A | 0.325
NCI-H460 | 0.549
NCI-H2170 | 0.67
HCC-15 | 0.648
NCI-H1944 | 0.395
EMC-BAC-2 | 0.38
LC-2-ad | 0.753
NCI-H2085 | 0.645
NCI-H727 | 0.571
NCI-H647 | 0.636
HARA | 0.428
NCI-H3122 | 0.932
NCI-H358 | 0.7
CAL-12T | 0.542

same assay, conditions: first compound 0.1 µM

Cell Line | relative viability
NCI-H2087 | 0.565
NCI-H1734 | 0.568
LCLC-103H | 0.474
LU99A | 0.28
NCI-H460 | 0.623
NCI-H2170 | 0.194
HCC-15 | 0.73
NCI-H1944 | 0.285
EMC-BAC-2 | 0.382
LC-2-ad | 0.629
NCI-H2085 | 0.37
NCI-H727 | 0.561
NCI-H647 | 0.629
HARA | 0.186
NCI-H3122 | 0.893
NCI-H358 | 0.47
CAL-12T | 0.461

same assay, conditions: first compound 0.3162 µM

Cell Line | relative viability
EKVX | 0.791
NCI-H1734 | 0.49
LCLC-103H | 0.39
LU99A | 0.244
NCI-H460 | 0.456
NCI-H2170 | 0.686
NCI-H1944 | 0.336
EMC-BAC-2 | 0.22
NCI-H2085 | 0.663
NCI-H727 | 1.08
NCI-H647 | 0.477
HARA | 0.407
NCI-H3122 | 1.04
NCI-H358 | 0.928
CAL-12T | 0.801

same assay, conditions: first compound 1 µM

Cell Line | relative viability
EKVX | 0.688
NCI-H2087 | 0.514
NCI-H1734 | 0.507
LCLC-103H | 0.443
LU99A | 0.287
NCI-H460 | 0.473
NCI-H2170 | 0.7
HCC-15 | 0.52
NCI-H1944 | 0.352
EMC-BAC-2 | 0.329
LC-2-ad | 0.747
NCI-H2085 | 0.637
NCI-H727 | 0.526
NCI-H647 | 0.564
HARA | 0.229
NCI-H3122 | 0.899
NCI-H358 | 0.882
CAL-12T | 0.503

compound: CCCS(=O)(=O)Nc1ccc(F)c(C(=O)c2c[nH]c3ncc(-c4ccc(Cl)cc4)cc23)c1F [Vemurafenib] + NC(=O)Nc1cc(-c2cccc(F)c2)sc1C(=O)N[C@H]1CCCNC1 [AZD7762] (partner 0.2 µM); experiment: as above; conditions: first compound 0.03162 µM
Outline: as §1

Cell Line | relative viability
EKVX | 0.689
NCI-H2087 | 1.12
NCI-H1734 | 0.568
LCLC-103H | 0.757
LU99A | 0.369
NCI-H460 | 0.579
NCI-H2170 | 0.774
HCC-15 | 1.05
NCI-H1944 | 0.515
EMC-BAC-2 | 1.06
LC-2-ad | 0.831
NCI-H2085 | 0.893
NCI-H727 | 0.555
NCI-H647 | 0.433
HARA | 0.0775
NCI-H3122 | 0.988
NCI-H358 | 0.551
CAL-12T | 0.594

same assay, conditions: first compound 0.1 µM

Cell Line | relative viability
NCI-H2087 | 1.31
NCI-H1734 | 0.533
LCLC-103H | 0.741
LU99A | 0.353
NCI-H460 | 0.604
HCC-15 | 1.22
EMC-BAC-2 | 1.09
LC-2-ad | 0.615
NCI-H2085 | 0.804
NCI-H727 | 0.468
NCI-H647 | 0.541
HARA | 0.292
NCI-H3122 | 0.895
CAL-12T | 0.617

same assay, conditions: first compound 0.3162 µM

Cell Line | relative viability
EKVX | 0.683
NCI-H2087 | 1.09
NCI-H1734 | 0.371
LCLC-103H | 0.617
NCI-H2170 | 0.685
HCC-15 | 1.17
NCI-H1944 | 0.426
EMC-BAC-2 | 0.851
LC-2-ad | 0.749
NCI-H2085 | 0.928
NCI-H727 | 0.744
NCI-H647 | 0.26
HARA | 0.168
NCI-H3122 | 0.922
NCI-H358 | 0.621
CAL-12T | 0.535

same assay, conditions: first compound 1 µM

Cell Line | relative viability
EKVX | 0.6
NCI-H2087 | 1.19
NCI-H1734 | 0.559
LCLC-103H | 0.694
LU99A | 0.385
NCI-H460 | 0.619
NCI-H2170 | 0.766
HCC-15 | 1.1
NCI-H1944 | 0.57
EMC-BAC-2 | 1.05
LC-2-ad | 0.818
NCI-H2085 | 0.997
NCI-H727 | 0.59
NCI-H647 | 0.432
HARA | 0.37
NCI-H3122 | 1.09
NCI-H358 | 0.632
CAL-12T | 0.593
